Measurements from patent US9845323B2, “2-(1,3,4-oxadiazol-2-yl)-7-oxo-1,6-diazabicyclo[3.2.1 ]octane derivatives and their use as antibacterial agents” (WOCKHARDT LIMITED, priority 2014, dated 2017).
In brackets after ≈: the same amount, converted by molar mass.

Legend:
C. frundaii 58 MP = test: Agar dilution MIC (CLSI), compound alone; type: cell-based
Experimental: (§1) The biological activity of representative compounds according to the invention against various bacterial strains was investigated. In a typical study, overnight grown bacterial cultures were diluted appropriately and inoculated on the agar media containing doubling dilutions of the test compounds. Observations for growth or no growth was performed after 16-20 hours of incubation at 35±2° C. in the ambient air. The overall procedure was performed as per Clinical and Laboratory Standards Institute (CLSI) recommendations, (Clinical and Laboratory Standards Institute (CLSI), Performance Standards for Antimicrobial Susceptibility Testing, 20th Informational Supplement, M 07-A9, Volume 32, No. 2, 2012). Molten Mueller Hinton Agar (BD, USA) containing serial dilutions of each antibacterial agent were poured on to the plates and allowed to solidify. Appropriate suspensions from the freshly grown cultures were prepared in normal saline so that about 10^4 CFU/spot of the organism was delivered on to the drug containing agar plates using automated multipoint inoculator (Mast, UK). The plates were incubated in Biochemical oxygen demand (BOD) incubator at 37° C. for 18 hours and then examined for growth.

E. cloacae M 20 = test: Agar dilution MIC (CLSI), compound alone; type: cell-based; settings: Enterobacter cloacae, M20
Experimental: as §1

E. coli 7 MP = test: Agar dilution MIC (CLSI), compound alone; type: cell-based; settings: Escherichia coli
Experimental: as §1

E. coli M 49 = test: Agar dilution MIC (CLSI), compound alone; type: cell-based; settings: Escherichia coli, M49
Experimental: as §1

E. coli M 50 = test: Agar dilution MIC (CLSI), compound alone; type: cell-based; settings: Escherichia coli, M50
Experimental: as §1

E. coli NCTC 13351 = test: Agar dilution MIC (CLSI), compound alone; type: cell-based; settings: Escherichia coli, NCTC13351
Experimental: as §1

E. coli NCTC 13352 = test: Agar dilution MIC (CLSI), compound alone; type: cell-based; settings: Escherichia coli, NCTC13352
Experimental: as §1

[1] = test system: E. coli NCTC 13353 (CTX-M15, OXA-1); test: Agar dilution MIC (CLSI), compound alone; type: cell-based
Experimental: as §1

K. pneumoniae B 77 = test: Agar dilution MIC (CLSI), compound alone; type: cell-based; settings: Klebsiella pneumoniae, B77
Experimental: as §1

K. pneumoniae H 525 = test: Agar dilution MIC (CLSI), compound alone; type: cell-based; settings: Klebsiella pneumoniae, H525
Experimental: as §1

[2] = test system: K. pneumoniae H521 (KPC, SHV, TEM); test: Agar dilution MIC (CLSI), compound alone; type: cell-based
Experimental: as §1

K. pneumoniae S 21 = test: Agar dilution MIC (CLSI), compound alone; type: cell-based; settings: Klebsiella pneumoniae, S21
Experimental: as §1

P. aeruginosa 2779 = test: Agar dilution MIC (CLSI), compound alone; type: cell-based; settings: Pseudomonas aeruginosa
Experimental: as §1

P. aeruginosa ATCC 27853 = test: Agar dilution MIC (CLSI), compound alone; type: cell-based; settings: Pseudomonas aeruginosa, ATCC27853
Experimental: as §1

P. aeruginosa PAO1 = test: Agar dilution MIC (CLSI), compound alone; type: cell-based; settings: Pseudomonas aeruginosa
Experimental: as §1

P. aeruginosa R 20 = test: Agar dilution MIC (CLSI), compound alone; type: cell-based; settings: Pseudomonas aeruginosa, R20
Experimental: as §1

[3] = test system: K. Pneomoniae S48 (NDM, SHV, TEM); test: Agar dilution MIC (CLSI), compound alone; type: cell-based, K. pneumoniae; settings: Klebsiella pneumoniae
Experimental: as §1

[4] = biological target: Class A beta-lactamase SHV 18 (K. pneumoniae ATCC 700603) (Klebsiella pneumoniae, UniProt P0AD64); test: Beta-lactamase enzyme inhibition (Nitrocefin, crude enzyme); type: biochemical; settings: read-out: Beta-lactamase enzyme inhibition IC50, K. pneumoniae ATCC 700603 (SHV 18), Nitrocefin 100 μM
Sequence of Class A beta-lactamase SHV 18 (K. pneumoniae ATCC 700603) (P0AD64 22-286 limits assumed): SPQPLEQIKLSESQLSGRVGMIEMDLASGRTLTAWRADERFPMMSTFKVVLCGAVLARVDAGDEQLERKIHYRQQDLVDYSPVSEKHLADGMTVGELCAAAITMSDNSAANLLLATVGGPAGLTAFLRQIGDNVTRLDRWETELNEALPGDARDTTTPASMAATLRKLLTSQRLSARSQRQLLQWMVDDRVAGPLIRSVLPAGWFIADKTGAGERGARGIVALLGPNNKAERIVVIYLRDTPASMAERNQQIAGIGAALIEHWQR
Experimental: (§2) Absorbance was measured at 485 nm by UV-spectrophotometer. The IC50 was calculated by plotting absorbance against concentration through Sigmoidal dose response curve using Graph Pad software.

[5] = test system: Class C beta-lactamase CMY/DHA (E. coli M50); test: as above; type: biochemical; settings: Nitrocefin 100 μM
Experimental: as §2

[6] = biological target: T1, Class D beta-lactamase OXA 23 (A baumannii NCTC 13301) (Acinetobacter baumannii, UniProt Q9L4P2); test: as above; type: biochemical; settings: A baumannii NCTC 13301 (OXA 23), Nitrocefin 100 μM
T1 construct: preincubated mixture of crude enzyme and the compounds; endogenous in cells; host or cells: A. baumannii NCTC 13301 (crude enzyme preparation)
T1 sequence (Q9L4P2 18-273): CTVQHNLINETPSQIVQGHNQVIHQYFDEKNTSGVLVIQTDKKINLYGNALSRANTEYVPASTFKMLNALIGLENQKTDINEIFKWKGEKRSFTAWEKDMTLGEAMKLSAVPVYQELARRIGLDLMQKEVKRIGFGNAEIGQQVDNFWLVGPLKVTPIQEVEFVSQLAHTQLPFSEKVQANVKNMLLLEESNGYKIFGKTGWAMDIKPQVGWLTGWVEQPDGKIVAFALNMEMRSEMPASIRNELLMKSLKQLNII
Experimental: as §2

[7] = test system: Multi Drug Resistant (MDR) Gram-negative bacterial strains; test: Antibacterial activity alone; type: cell-based; settings: compounds used alone; compared with standards (imipenem, ceftazidime) or avibactam
Experimental: as §1

O=C1N2C[C@@H](CC[C@H]2c2nnc(Cc3ccccc3)o2)N1OS(=O)(=O)O [Example 5, (2S,5R)-sulfuric acid mono-[2-(5-benzyl-[1,3,4]-oxadiazol-2-yl)-7-oxo-1,6-diaza-bicyclo[3.2.1]oct-6-yl] ester]
MIC (C. frundaii 58 MP): > 32 µg/mL
MIC (E. cloacae M 20): > 32 µg/mL
MIC (E. coli 7 MP): 32 µg/mL (≈ 84.1 µM)
MIC (E. coli M 49): > 32 µg/mL
MIC (E. coli M 50): 16 µg/mL (≈ 42.1 µM)
MIC (E. coli NCTC 13351): 16 µg/mL (≈ 42.1 µM)
MIC (E. coli NCTC 13352): 16 µg/mL (≈ 42.1 µM)
MIC ([1]; E. coli NCTC 13353, Table 3): 8 µg/mL (≈ 21 µM)
MIC ([1]; Escherichia coli, NCTC13353): 8 µg/mL (≈ 21 µM)
MIC (K. pneumoniae B 77): > 32 µg/mL
MIC (K. pneumoniae H 525): 16 µg/mL (≈ 42.1 µM)
MIC ([2]; K. pneumoniae H 521, Table 3): 32 µg/mL (≈ 84.1 µM)
MIC ([2]; Klebsiella pneumoniae): 32 µg/mL (≈ 84.1 µM)
MIC (K. pneumoniae S 21): > 32 µg/mL
MIC (P. aeruginosa 2779): > 32 µg/mL
MIC (P. aeruginosa ATCC 27853): > 32 µg/mL
MIC (P. aeruginosa PAO1): > 32 µg/mL
MIC (P. aeruginosa R 20): > 32 µg/mL
MIC [3]: 8 µg/mL (≈ 21 µM)
IC50 [4]: 33 nM
IC50 [5]: 6 nM
IC50 [6]: 280 nM
Antibacterial activity (MIC values) in words [7]: exhibited antibacterial activity in comparison to avibactam
